Data set [1] deals with caterpillars of the fall armyworm (Spodoptera frugiperda). In words: Spodoptera frugiperda spray test. Type of data set: in vivo. The conditions noted are these: foliar, 168 h, read-out: efficacy. The procedure: (§1) Solvent: 78.0 parts by weight of acetone • • 1.5 parts by weight of dimethylformamide
(§2) Emulsifier: alkylaryl polyglycol ether
(§3) To produce a suitable active compound formulation, 1 part by weight of active compound is dissolved with the specified parts by weight of solvent and made up to the desired concentration with water containing an emulsifier concentration of 1000 ppm. To produce further test concentrations, the formulation is diluted with emulsifier-containing water.
Leaf discs of maize (Zea mays) are sprayed with an active compound formulation of the desired concentration and, after drying, populated with caterpillars of the fall armyworm (Spodoptera frugiperda).
After 7 days, the efficacy in % is determined. 100% means that all the caterpillars have been killed; 0% means that no caterpillar has been killed.

The test system of data set [2] is adult cat fleas (Ctenocephalides felis). Put plainly: Ctenocephalides felis oral test. It counts as in vivo. The conditions noted are these: 48 h, 100 ppm in citrated cattle blood, after 2 days, read-out: efficacy (kill). The procedure:
Solvent: dimethyl sulfoxide
To produce a suitable active compound formulation, 10 mg of active compound are mixed with 0.5 ml of dimethyl sulfoxide. Dilution with citrated cattle blood gives the desired concentration.
About 20 unfed adult cat fleas (Ctenocephalides felis) are placed into a chamber which is closed at the top and bottom with gauze. A metal cylinder whose bottom end is closed with parafilm is placed onto the chamber. The cylinder contains the blood/active compound formulation, which can be imbibed by the fleas through the parafilm membrane.
After 2 days, the kill in % is determined. 100% means that all of the fleas have been killed; 0% means that none of the fleas have been killed.

In data set [3] the test system is larvae of the mustard beetle (Phaedon cochleariae). In words: Phaedon cochleariae spray test. The conditions noted are these: foliar, 168 h, read-out: efficacy. It counts as in vivo. The procedure:
as §1, §2, §3
Discs of Chinese cabbage leaves (Brassica pekinensis) are sprayed with an active compound formulation of the desired concentration and, after drying, populated with larvae of the mustard beetle (Phaedon cochleariae).
After 7 days, the efficacy in % is determined. 100% means that all the beetle larvae have been killed; 0% means that no beetle larvae have been killed.

Data set [4] can be described thus: logP by HPLC on reversed-phase column (C18), acidic range. It counts as physicochemical. The conditions noted are these: reversed-phase HPLC column (C18), formic acid in water/acetonitrile. The procedure:
The logP values were determined according to EEC Directive 79/831 Annex V.A8 by HPLC (high-performance liquid chromatography) on a reversed-phase column (C18) using the following methods:
Calibration was carried out using a homologous series of straight-chain alkan-2-ones (having 3 to 16 carbon atoms) with known logP values. The values between successive alkanones are determined by linear regression.

Data set [5] deals with green peach aphid (Myzus persicae). Put plainly: Myzus persicae spray test. Type of data set: in vivo. The conditions noted are these: foliar, 120 h, 100 g/ha, after 5 days, Chinese cabbage leaf discs, read-out: efficacy. As to the method: Solvent: 78 parts by weight of acetone • • 1.5 parts by weight of dimethylformamide
as §2, §3
Discs of Chinese cabbage leaves (Brassica pekinensis) infested by all stages of the green peach aphid (Myzus persicae) are sprayed with an active compound formulation of the desired concentration.
After 5 days, the efficacy in % is determined. 100% means that all the aphids have been killed; 0% means that no aphids have been killed.

Setting [6] is: 100 g/ha, after 7 days, maize leaf discs.
Setting [7] is: 100 g/ha, after 7 days, Chinese cabbage leaf discs.

Like-named read-outs stand apart in the source and are kept apart here.

For `C=CCOC(=O)Nc1ccn2c(S(=O)(=O)CC)c(-c3nc4cc(C(F)(F)F)cnc4n3C)nc2c1` [Example I-17], the pest or weed control at 100 g/ha in data set [1] (in Zea mays) and in data set [3] (in Brassica rapa) was 100% in each case. In data set [2], the pest or weed control at 100 ppm turned out to be 100%.

In the case of `CCOC(=O)c1nc2cc(Br)ccn2c1S(=O)(=O)CC` [Ethyl 7-bromo-3-(ethylsulfonyl)imidazo[1,2-a]pyridine-2-carboxylate], the chromatographic logP in data set [4] turned out to be 2.22.

On to `CCS(=O)(=O)c1c(-c2nc3cc(C(F)(F)F)ncc3n2C)nc2cc(S(=O)(=O)NC3CC3)ccn12` [Example I-23], for which the pest or weed control at 100 g/ha in data set [5] was 90%.

In the case of `CCS(=O)(=O)c1c(-c2nc3cc(OC(F)(F)F)cnc3n2C)nc2cc(C3(C#N)CC3)ccn12` [Example I-29], the pest or weed control at 100 g/ha in data set [1] (setting [6]) came out at 100%; in data set [5] it was 90%; in data set [3] (setting [7]), 100%.

As for `CCOC(=O)c1nc2cc(Br)ccn2c1SCC` [Ethyl 7-bromo-3-(ethylsulfanyl)imidazo[1,2-a]pyridine-2-carboxylate], the chromatographic logP in data set [4] is 2.76.

Take `CCS(=O)(=O)c1c(-c2nc3cc(C(F)(F)F)cnc3n2C)nc2cc(CC#N)ccn12` [{3-(Ethylsulfonyl)-2-[3-methyl-6-(trifluoromethyl)-3H-imidazo[4,5-b]pyridin-2-yl]imidazo[1,2-a]pyridin-7-yl}acetonitrile]: the chromatographic logP in data set [4] was 2.54.

As for `CCS(=O)(=O)c1c(-c2nc3cc(C(F)(F)F)nnc3n2C)nc2cc(NS(=O)(=O)C3CC3)ccn12` [Example I-26], the pest or weed control at 100 g/ha in data set [5] is 100%.

Consider `CCS(=O)(=O)c1c(-c2nc3cc(C(F)(F)F)cnc3n2C)nc2cc(NC3=CC(=O)OC3)ccn12` [Example I-19], for which the pest or weed control at 100 g/ha in data set [3] (setting [7]) was 100%.

`CCS(=O)(=O)c1c(C(=O)O)nc2cc(Br)ccn12` [7-Bromo-3-(ethylsulfonyeimidazo[1,2-a]pyridine-2-carboxylic acid]: the chromatographic logP in data set [4] was 1.52.

`CCS(=O)(=O)c1c(-c2nc3cc(C(F)(F)F)cnc3n2C)nc2cc(NC(C)=O)ccn12` [N-{3-(Ethylsulfonyl)-2-[3-methyl-6-(trifluoromethyl)-3H-imidazo[4,5-b]pyridin-2-yl]imidazo[1,2-a]pyridin-7-yl}acetamide]: the chromatographic logP in data set [4] was 2.28.

On to `CCS(=O)(=O)c1c(-c2nc3cc(S(=O)(=O)C(F)(F)F)cnc3n2C)nc2cc(S(=O)(=O)C3CC3)ccn12` [Example I-15], for which the pest or weed control at 100 g/ha in data set [1] (setting [6]) amounted to 100%; in data set [5], 90%; in data set [3] (setting [7]), 100%.

`CCS(=O)(=O)c1c(-c2nc3cc(C(F)(F)F)cnc3n2C)nc2cc(Br)ccn12` [2-[7-Bromo-3-(ethylsulfonyl)imidazo[1,2-a]pyridin-2-yl]-3-methyl-6-(trifluoromethyl)-3H-imidazo[4,5-b]pyridine]: the chromatographic logP in data set [4] amounted to 3.3.

With `CCS(=O)(=O)c1c(-c2nc3cc(C(F)(F)F)cnc3n2C)nc2cc(N)ccn12` [3-(Ethylsulfonyl)-2-[3-methyl-6-(trifluoromethyl)-3H-imidazo[4,5-b]pyridin-2-yl]imidazo[1,2-a]pyridine-7-amine], the chromatographic logP in data set [4] turned out to be 2.13.

As a reminder, the chromatographic logP is lipophilicity estimated from chromatographic retention. A higher chromatographic logP goes with higher lipophilicity.

The values above are taken from patent USRE50663E1, “Heterocycle derivatives as pesticides” (Bayer Aktiengesellschaft, priority 2017, dated 2025).
